Reference: ChEMBL document CHEMBL3885861, “Open TG-GATES”

Species: Rattus norvegicus
Test: Open TG-GATES - Regimen: Daily Repeat
Assay type: toxicity, organism-based, Sprague-Dawley
Parameters: regimen Daily Repeat, gender Male, age 6 weeks
Conditions: in vivo, po, 100 mg/kg, route gavage, dose level Low; for APTT / Bas / Eos / Fbg / Hb / Ht / Lym / MCH / MCHC / MCV / Mono / Neu / PT / Plat / RBC / Ret / WBC: tissue Blood; for KIDNEY_L / KIDNEY_R / KIDNEY_TOTAL: tissue Kidney; for LIVER: tissue Liver; for A/G / ALP / ALT / AST / BUN / CRE / Ca / Cl / DBIL / GLC / IP / LDH / Na / PL / RALB / TBIL / TC / TG / TP / gamma-GTP: tissue Plasma

SMILES: NC(N)=Nc1nc(CSCCC(N)=NS(N)(=O)=O)cs1 [FAMOTIDINE]
- TERMINAL_BW (72 h, time 3 day): 224.5 g
- APTT (72 h, time 3 day): 19.8 s
- Bas (72 h, time 3 day): 0%
- Eos (72 h, time 3 day): 1%
- Fbg (72 h, time 3 day): 225.2 mg/dL
- Hb (72 h, time 3 day): 13.3 g/dL
- Ht (72 h, time 3 day): 37.3%
- Lym (72 h, time 3 day): 78.4%
- MCH (72 h, time 3 day): 22.1 pg
- MCHC (72 h, time 3 day): 35.6%
- MCV (72 h, time 3 day): 62.1 fL
- Mono (72 h, time 3 day): 2.6%
- Neu (72 h, time 3 day): 15.6%
- PT (72 h, time 3 day): 12 s
- Plat (72 h, time 3 day): 124.1 x10_4/uL
- RBC (72 h, time 3 day): 600.6 x10_4/ul
- Ret (72 h, time 3 day): 5.7%
- WBC (72 h, time 3 day): 87.5 x10_2/uL
- KIDNEY_L (72 h, time 3 day): 1 g
- KIDNEY_R (72 h, time 3 day): 1 g
- KIDNEY_TOTAL (72 h, time 3 day): 2 g
- LIVER (72 h, time 3 day): 10.2 g
- A/G (72 h, time 3 day): 1.6
- ALP (72 h, time 3 day): 1126.4 IU/L
- ALT (72 h, time 3 day): 30.2 IU/L
- AST (72 h, time 3 day): 63.6 IU/L
- BUN (72 h, time 3 day): 16.6 mg/dL
- CRE (72 h, time 3 day): 0.4 mg/dL
- Ca (72 h, time 3 day): 10.7 mg/dL
- Cl (72 h, time 3 day): 102.8 meq/L
- DBIL (72 h, time 3 day): 0.086 mg/dL
- GLC (72 h, time 3 day): 190.4 mg/dL
- IP (72 h, time 3 day): 7.2 mg/dL
- LDH (72 h, time 3 day): 190.6 IU/L
- Na (72 h, time 3 day): 139 meq/L
- PL (72 h, time 3 day): 136.8 mg/dL
- RALB (72 h, time 3 day): 3.3 g/dL
- TBIL (72 h, time 3 day): 0.1 mg/dL
- TC (72 h, time 3 day): 73.8 mg/dL
- TG (72 h, time 3 day): 63.2 mg/dL
- TP (72 h, time 3 day): 5.5 g/dL
- gamma-GTP (72 h, time 3 day): 1.2 IU/L
- TERMINAL_BW ([…], time 7 day): 259.3 g
- TERMINAL_BW ([…], time 14 day): 310.4 g
- TERMINAL_BW ([…], time 28 day): 389.2 g
- APTT ([…], time 7 day): 20.9 s
- Bas ([…], time 7 day): 0%
- Eos ([…], time 7 day): 1%
- Fbg ([…], time 7 day): 217.6 mg/dL
- Hb ([…], time 7 day): 13.5 g/dL
- Ht ([…], time 7 day): 37.6%
- Lym ([…], time 7 day): 78.6%
- MCH ([…], time 7 day): 22 pg
- MCHC ([…], time 7 day): 35.9%
- MCV ([…], time 7 day): 61.5 fL
- Mono ([…], time 7 day): 2.8%
- Neu ([…], time 7 day): 16.4%
- PT ([…], time 7 day): 12.1 s
- Plat ([…], time 7 day): 116.2 x10_4/uL
- RBC ([…], time 7 day): 612 x10_4/ul
- Ret ([…], time 7 day): 5.2%
- WBC ([…], time 7 day): 95.1 x10_2/uL
- APTT ([…], time 14 day): 22.2 s
- Bas ([…], time 14 day): 0%
- Eos ([…], time 14 day): 0.6%
- Fbg ([…], time 14 day): 217.4 mg/dL
- Hb ([…], time 14 day): 14.4 g/dL
- Ht ([…], time 14 day): 41.5%
- Lym ([…], time 14 day): 77.4%
- MCH ([…], time 14 day): 20.9 pg
- MCHC ([…], time 14 day): 34.8%
- MCV ([…], time 14 day): 60 fL
- Mono ([…], time 14 day): 2.4%
- Neu ([…], time 14 day): 17.8%
- PT ([…], time 14 day): 12.6 s
- Plat ([…], time 14 day): 111.6 x10_4/uL
- RBC ([…], time 14 day): 691.8 x10_4/ul
- Ret ([…], time 14 day): 4%
- WBC ([…], time 14 day): 94.5 x10_2/uL
- APTT ([…], time 28 day): 21.5 s
- Bas ([…], time 28 day): 0%
- Eos ([…], time 28 day): 1.6%
- Fbg ([…], time 28 day): 219.4 mg/dL
- Hb ([…], time 28 day): 15.5 g/dL
- Ht ([…], time 28 day): 43.7%
- Lym ([…], time 28 day): 81.2%
- MCH ([…], time 28 day): 19.4 pg
- MCHC ([…], time 28 day): 35.5%
- MCV ([…], time 28 day): 54.9 fL
- Mono ([…], time 28 day): 1.6%
- Neu ([…], time 28 day): 14.2%
- PT ([…], time 28 day): 12.8 s
- Plat ([…], time 28 day): 96.6 x10_4/uL
- RBC ([…], time 28 day): 796 x10_4/ul
- Ret ([…], time 28 day): 2.2%
- WBC ([…], time 28 day): 90.2 x10_2/uL
- KIDNEY_L ([…], time 7 day): 1.1 g
- KIDNEY_R ([…], time 7 day): 1.1 g
- KIDNEY_TOTAL ([…], time 7 day): 2.2 g
- KIDNEY_L ([…], time 14 day): 1.2 g
- KIDNEY_R ([…], time 14 day): 1.2 g
- KIDNEY_TOTAL ([…], time 14 day): 2.5 g
- KIDNEY_L ([…], time 28 day): 1.3 g
- KIDNEY_R ([…], time 28 day): 1.4 g
- KIDNEY_TOTAL ([…], time 28 day): 2.7 g
- LIVER ([…], time 7 day): 12.4 g
- LIVER ([…], time 14 day): 13.4 g
- LIVER ([…], time 28 day): 15.7 g
- A/G ([…], time 7 day): 1.5
- ALP ([…], time 7 day): 940.8 IU/L
- ALT ([…], time 7 day): 30.4 IU/L
- AST ([…], time 7 day): 67 IU/L
- BUN ([…], time 7 day): 16.4 mg/dL
- CRE ([…], time 7 day): 0.4 mg/dL
- Ca ([…], time 7 day): 10.7 mg/dL
- Cl ([…], time 7 day): 103 meq/L
- DBIL ([…], time 7 day): 0.098 mg/dL
- GLC ([…], time 7 day): 182.8 mg/dL
- IP ([…], time 7 day): 7 mg/dL
- LDH ([…], time 7 day): 205.2 IU/L
- Na ([…], time 7 day): 140.8 meq/L
- PL ([…], time 7 day): 151 mg/dL
- RALB ([…], time 7 day): 3.4 g/dL
- TBIL ([…], time 7 day): 0.2 mg/dL
- TC ([…], time 7 day): 78.6 mg/dL
- TG ([…], time 7 day): 98.2 mg/dL
- TP ([…], time 7 day): 5.6 g/dL
- gamma-GTP ([…], time 7 day): 1.2 IU/L
- A/G ([…], time 14 day): 1.5
- ALP ([…], time 14 day): 918.4 IU/L
- ALT ([…], time 14 day): 38 IU/L
- AST ([…], time 14 day): 64.4 IU/L
- BUN ([…], time 14 day): 15.2 mg/dL
- CRE ([…], time 14 day): 0.5 mg/dL
- Ca ([…], time 14 day): 10.5 mg/dL
- Cl ([…], time 14 day): 104 meq/L
- DBIL ([…], time 14 day): 0.096 mg/dL
- GLC ([…], time 14 day): 196.2 mg/dL
- IP ([…], time 14 day): 7 mg/dL
- LDH ([…], time 14 day): 181 IU/L
- Na ([…], time 14 day): 140.6 meq/L
- PL ([…], time 14 day): 141.2 mg/dL
- RALB ([…], time 14 day): 3.3 g/dL
- TBIL ([…], time 14 day): 0.2 mg/dL
- TC ([…], time 14 day): 67 mg/dL
- TG ([…], time 14 day): 111.4 mg/dL
- TP ([…], time 14 day): 5.6 g/dL
- gamma-GTP ([…], time 14 day): 1.6 IU/L
- A/G ([…], time 28 day): 1.3
- ALP ([…], time 28 day): 577.4 IU/L
- ALT ([…], time 28 day): 31.8 IU/L
- AST ([…], time 28 day): 59.6 IU/L
- BUN ([…], time 28 day): 15.8 mg/dL
- CRE ([…], time 28 day): 0.6 mg/dL
- Ca ([…], time 28 day): 9.9 mg/dL
- Cl ([…], time 28 day): 103.4 meq/L
- DBIL ([…], time 28 day): 0.074 mg/dL
- GLC ([…], time 28 day): 241.8 mg/dL
- IP ([…], time 28 day): 7.1 mg/dL
- LDH ([…], time 28 day): 132.8 IU/L
- Na ([…], time 28 day): 140.8 meq/L
- PL ([…], time 28 day): 121.2 mg/dL
- RALB ([…], time 28 day): 3.3 g/dL
- TBIL ([…], time 28 day): 0.1 mg/dL
- TC ([…], time 28 day): 57.8 mg/dL
- TG ([…], time 28 day): 91 mg/dL
- TP ([…], time 28 day): 5.9 g/dL
- gamma-GTP ([…], time 28 day): 1.2 IU/L
